Test results reported in patent publication CN102911068A, “左旋肉碱l-苹果酸盐及其制备方法与用途” (GUANGZHOU AOHAI BIO-TECHNOLOGY CO LTD, priority 2011, dated 2013).

Columns and labels:
[1] = Critical relative humidity (CRH) from moisture absorption equilibrium curve; type: physicochemical
[2] = system: obese model rats [肥胖模型大鼠]; assay: Weight-loss efficacy test in obese model SD rats (diet-induced obesity, with swimming exercise); type: in vivo, rat; conditions: 30 days; for body fat (testicular and perirenal fat pads) / body weight increase / fat/body ratio: gavage
[3] = Angle of repose (powder poured through a funnel) / flowability; type: physicochemical
[4] = background art, cited from earlier work
[5] = background art; cited from earlier work
[6] = high dose + exercise (30x recommended human dose; Ex. 2 at maximum dissolved concentration; Ex. 1/2/3/4: 0.96/0.36/1.02/1.08 g in 2 ml water), * (P<0.05 vs model control): all
[7] = L-carnitine tartrate control + exercise, 0.13 g in 2 ml water, swimming 30 min, 5 times/week, * (P<0.05 vs model control) printed

C[N+](C)(C)CC(O)CC(=O)O (centres unmarked) [实施例1药, 左旋肉碱L-苹果酸盐]
critical relative humidity CRH ([1]; 25 °C, saturated salt solutions in desiccator): 87%
moisture absorption (hygroscopicity) ([1]; words, judged from CRH at 25 °C): 不易吸潮
body fat (testicular and perirenal fat pads) [2, 6]: 5.9 ± 4.5 g
body weight increase [2, 6]: 15.2 ± 7.9 g
fat/body ratio [2, 6]: 0.02±0.02
body weight increase ([2]; low dose + exercise (5x recommended human dose; Ex. 1/2/3/4: 0.16/0.18/0.17/0.18 g in 2 ml water), * (P<0.05 vs model control): Ex. 1, 3, 4): 19.3 ± 10.2 g
body fat (testicular and perirenal fat pads) ([2]; low dose + exercise (5x recommended human dose; Ex. 1/2/3/4: 0.16/0.18/0.17/0.18 g in 2 ml water), * (P<0.05 vs model control): Ex. 2, 3, 4): 7.3 ± 4.1 g
fat/body ratio ([2]; low dose + exercise (5x recommended human dose; Ex. 1/2/3/4: 0.16/0.18/0.17/0.18 g in 2 ml water), no * printed): 0.03±0.01
difference between results of Example 1, 2, 3 and 4 drugs ([2]; words, obese rats): 无明显差异
angle of repose ([3]; solid powder flowing from funnel): 30 °
flowability ([3]; words, judged from angle of repose): 流动性较好

C[N+](C)(C)CC(O)CC(=O)O (centres unmarked) [左旋肉碱酒石酸盐, reference compound]
hygroscopicity ([4]; words): 仍有较大的吸湿性
relative humidity at which deliquescence occurs [4]: > 60%
body fat (testicular and perirenal fat pads) ([2]; L-carnitine tartrate control + exercise, 0.13 g in 2 ml water, swimming 30 min, 5 times/week): 8.2 ± 4.3 g
body weight increase [2, 7]: 21.3 ± 14.2 g
fat/body ratio [2, 7]: 0.03±0.01

CC(=O)[O-].CC(=O)[O-].[Ca+2] [醋酸钙]
LD50 [5]: < 5000 mg/kg
